From ChEMBL document CHEMBL2146447, “Synthesis and antimicrobial activity of amido linked pyrrolyl and pyrazolyl-oxazoles, thiazoles and imidazoles” (2011)
Activity calls are given as the source filed them. The rule behind the calls is not given here.

Assays:
Type in all cases: functional
[1] = system: Bacillus subtilis; assay: Antibacterial activity against Bacillus subtilis at 50 ug after 24 hrs by agar well diffusion method; conditions: for zone of inhibition at 50 µg/disc: read-out: DIZ
[2] = system: Staphylococcus aureus; assay: Antibacterial activity against Staphylococcus aureus at 35 degC after 24 hrs by broth dilution method
[3] = system: Pseudomonas aeruginosa; assay: Antibacterial activity against Pseudomonas aeruginosa at 50 ug after 24 hrs by agar well diffusion method; conditions: for zone of inhibition at 50 µg/disc: read-out: DIZ
[4] = system: Klebsiella pneumoniae; assay: Bactericidal activity against Klebsiella pneumoniae after 24 hrs by broth dilution method
[5] = system: Bacillus subtilis; assay: Bactericidal activity against Bacillus subtilis after 24 hrs by broth dilution method
[6] = system: Staphylococcus aureus; assay: Antibacterial activity against Staphylococcus aureus at 100 ug after 24 hrs by agar well diffusion method; conditions: for zone of inhibition at 100 µg/disc: read-out: DIZ
[7] = system: Pseudomonas aeruginosa; assay: Bactericidal activity against Pseudomonas aeruginosa after 24 hrs by broth dilution method
[8] = system: Pseudomonas aeruginosa; assay: Antibacterial activity against Pseudomonas aeruginosa at 100 ug after 24 hrs by agar well diffusion method; conditions: for zone of inhibition at 100 µg/disc: read-out: DIZ
[9] = system: Staphylococcus aureus; assay: Antibacterial activity against Staphylococcus aureus assessed at 50 ug after 24 hrs by agar well diffusion method; conditions: for zone of inhibition at 50 µg/disc: read-out: DIZ
[10] = system: Klebsiella pneumoniae; assay: Antibacterial activity against Klebsiella pneumoniae at 50 ug after 24 hrs by agar well diffusion method; conditions: for zone of inhibition at 50 µg/disc: read-out: DIZ
[11] = system: Bacillus subtilis; assay: Antibacterial activity against Bacillus subtilis at 100 ug after 24 hrs by agar well diffusion method; conditions: for zone of inhibition at 100 µg/disc: read-out: DIZ
[12] = system: Klebsiella pneumoniae; assay: Antibacterial activity against Klebsiella pneumoniae at 100 ug after 24 hrs by agar well diffusion method; conditions: for zone of inhibition at 100 µg/disc: read-out: DIZ
[13] = system: Aspergillus niger; assay: Antifungal activity against Aspergillus niger at 100 ug after 48 hrs by agar well diffusion method; conditions: for zone of inhibition at 100 µg/disc: read-out: DIZ
[14] = system: Aspergillus niger; assay: Fungicidal activity against Aspergillus niger after 48 hrs by broth dilution method
[15] = system: Penicillium chrysogenum; assay: Antifungal activity against Penicillium chrysogenum at 50 ug after 48 hrs by agar well diffusion method; conditions: for zone of inhibition at 50 µg/disc: read-out: DIZ
[16] = system: Aspergillus niger; assay: Antifungal activity against Aspergillus niger at 50 ug after 48 hrs by agar well diffusion method; conditions: for zone of inhibition at 50 µg/disc: read-out: DIZ
[17] = system: Penicillium chrysogenum; assay: Fungicidal activity against Penicillium chrysogenum after 48 hrs by broth dilution method
[18] = system: Penicillium chrysogenum; assay: Antifungal activity against Penicillium chrysogenum at 100 ug after 48 hrs by agar well diffusion method; conditions: for zone of inhibition at 100 µg/disc: read-out: DIZ

Compound	zone of inhibition at 50 µg/disc [1]	zone of inhibition at 50 µg/disc [3]	zone of inhibition at 100 µg/disc [6]	zone of inhibition at 100 µg/disc [8]	zone of inhibition at 50 µg/disc [9]	zone of inhibition at 50 µg/disc [10]	zone of inhibition at 100 µg/disc [11]	zone of inhibition at 100 µg/disc [12]	zone of inhibition at 100 µg/disc [13]	zone of inhibition at 50 µg/disc [15]	zone of inhibition at 50 µg/disc [16]	zone of inhibition at 100 µg/disc [18]	diameter of the inhibition zone (DIZ) [13]	diameter of the inhibition zone (DIZ) [3]	diameter of the inhibition zone (DIZ) [8]	diameter of the inhibition zone (DIZ) [10]	diameter of the inhibition zone (DIZ) [15]	diameter of the inhibition zone (DIZ) [16]	diameter of the inhibition zone (DIZ) [12]	diameter of the inhibition zone (DIZ) [18]	also measured
O=C(N[C@H](CO)[C@H](O)c1ccc([N+](=O)[O-])cc1)C(Cl)Cl [CHLORAMPHENICOL]	34 mm	27 mm	35 mm	30 mm	33 mm	40 mm	38 mm	42 mm													MIC [2]: 6.25 µg; MIC [4]: 12.5 µg; MIC [5]: 6.25 µg; MIC [7]: 6.25 µg
CC(=O)N1CCN(c2ccc(OCC3COC(Cn4ccnc4)(c4ccc(Cl)cc4Cl)O3)cc2)CC1 (stereo not drawn) [KETOCONAZOLE]									36 mm	36 mm	33 mm	38 mm									MIC [14]: 6.25 µg; MIC [17]: 12.5 µg
O=C(Nc1nc(-c2ccc(Cl)cc2)co1)C1=NNCC1c1ccccc1 (stereo not drawn)	17 mm	17 mm	18 mm	19 mm	17 mm	22 mm	20 mm	24 mm	25 mm	24 mm	23 mm	27 mm									
Cc1ccc(-c2c[nH]c(NC(=O)C3=NNCC3c3ccccc3)n2)cc1 (stereo not drawn)	14 mm	11 mm	13 mm	13 mm	11 mm	16 mm	16 mm	18 mm	14 mm	13 mm	11 mm	16 mm									
Cc1ccc(-c2c[nH]c(NC(=O)c3n[nH]cc3-c3ccccc3)n2)cc1	9 mm	9 mm	9 mm	10 mm	8 mm	11 mm	12 mm	13 mm	9 mm	8 mm	8 mm	11 mm									
Cc1ccc(-c2coc(NC(=O)c3n[nH]cc3-c3ccccc3)n2)cc1													inactive	inactive	inactive	inactive	inactive	inactive	inactive	inactive	diameter of the inhibition zone (DIZ) [1]: inactive; diameter of the inhibition zone (DIZ) [6]: inactive; diameter of the inhibition zone (DIZ) [9]: inactive; diameter of the inhibition zone (DIZ) [11]: inactive
O=C(Nc1nc(-c2ccccc2)cs1)c1c[nH]cc1-c1ccccc1	20 mm	15 mm	19 mm	16 mm	17 mm	22 mm	22 mm	24 mm	20 mm	19 mm	18 mm	22 mm									
O=C(/C=C/c1ccccc1)Nc1nc(-c2ccc(Cl)cc2)co1	20 mm	21 mm	25 mm	22 mm	22 mm	24 mm	24 mm	27 mm	28 mm	27 mm	25 mm	30 mm									
O=C(Nc1nc(-c2ccccc2)cs1)C1=NNCC1c1ccccc1 (stereo not drawn)	14 mm		15 mm		13 mm		16 mm						inactive	inactive	inactive	inactive	inactive	inactive	inactive	inactive	
Cc1ccc(-c2coc(NC(=O)c3c[nH]cc3-c3ccccc3)n2)cc1													inactive	inactive	inactive	inactive	inactive	inactive	inactive	inactive	diameter of the inhibition zone (DIZ) [1]: inactive; diameter of the inhibition zone (DIZ) [6]: inactive; diameter of the inhibition zone (DIZ) [9]: inactive; diameter of the inhibition zone (DIZ) [11]: inactive
Cc1ccc(-c2coc(NC(=O)/C=C/c3ccccc3)n2)cc1													inactive	inactive	inactive	inactive	inactive	inactive	inactive	inactive	diameter of the inhibition zone (DIZ) [1]: inactive; diameter of the inhibition zone (DIZ) [6]: inactive; diameter of the inhibition zone (DIZ) [9]: inactive; diameter of the inhibition zone (DIZ) [11]: inactive
O=C(/C=C/c1ccccc1)Nc1nc(-c2ccccc2)co1	15 mm		15 mm		12 mm		16 mm						inactive	inactive	inactive	inactive	inactive	inactive	inactive	inactive	
Cc1ccc(-c2c[nH]c(NC(=O)/C=C/c3ccccc3)n2)cc1	21 mm	14 mm	20 mm	16 mm	18 mm	23 mm	23 mm	25 mm	21 mm	20 mm	18 mm	23 mm									
Cc1ccc(-c2coc(NC(=O)C3=NNCC3c3ccccc3)n2)cc1 (stereo not drawn)													inactive	inactive	inactive	inactive	inactive	inactive	inactive	inactive	diameter of the inhibition zone (DIZ) [1]: inactive; diameter of the inhibition zone (DIZ) [6]: inactive; diameter of the inhibition zone (DIZ) [9]: inactive; diameter of the inhibition zone (DIZ) [11]: inactive
O=C(Nc1nc(-c2ccc(Cl)cc2)co1)c1c[nH]cc1-c1ccccc1	17 mm	18 mm	20 mm	20 mm	18 mm	23 mm	21 mm	25 mm	26 mm	25 mm	24 mm	28 mm									
O=C(Nc1nc(-c2ccc(Cl)cc2)cs1)C1=NNCC1c1ccccc1 (stereo not drawn)	25 mm	22 mm	27 mm	23 mm	24 mm	25 mm	26 mm	28 mm	29 mm	28 mm	28 mm	31 mm									
O=C(/C=C/c1ccccc1)Nc1nc(-c2ccc(Cl)cc2)cs1	27 mm	25 mm	32 mm	27 mm	29 mm	33 mm	29 mm	35 mm	33 mm	32 mm	31 mm	35 mm									
